From ChEMBL document CHEMBL1201862, “PubChem BioAssay data set” (2004)
Active and inactive are the calls of the source.

What was measured:
[1] = molecular target: T1, Ubiquitin-conjugating enzyme E2 N (Homo sapiens, UniProt P61088); assay type: functional;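 also: Dose-response confirmation in a TR-FRET assay detecting UBC13-driven polyubiquitin chain formation, inhibition measured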
T1 sequence (P61088 whole entry): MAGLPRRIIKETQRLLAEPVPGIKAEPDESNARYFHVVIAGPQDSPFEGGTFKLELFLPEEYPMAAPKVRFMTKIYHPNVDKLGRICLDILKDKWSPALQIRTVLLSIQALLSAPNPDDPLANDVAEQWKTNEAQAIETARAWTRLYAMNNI

[2] = molecular target: FAD-linked sulfhydryl oxidase ALR (Homo sapiens, UniProt P55789); test: ALR-catalysed DTT oxidation blockers – biochemical, H2O2 detection, luminescence, cherry-pick, dose response (AID 493248)
Chain of FAD-linked sulfhydryl oxidase ALR (P55789 whole entry): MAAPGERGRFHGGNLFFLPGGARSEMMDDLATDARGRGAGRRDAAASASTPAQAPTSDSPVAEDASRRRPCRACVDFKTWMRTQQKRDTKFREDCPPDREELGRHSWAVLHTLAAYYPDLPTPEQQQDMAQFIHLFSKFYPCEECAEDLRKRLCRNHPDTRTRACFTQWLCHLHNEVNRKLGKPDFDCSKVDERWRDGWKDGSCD

[3] = reduction of Shn3 3'UTR-driven luciferase in osteoblasts – cell-based, Clone20 osteoblasts, firefly luciferase, cherry-picked, dose response (AID 624132); assay type: functional;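 also: firefly luciferase luminescence from reporter carrying the Shn3 3'UTR in osteoblasts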
[4] = loss of viability in HepG2 cells – cell-based, CellTiter-Glo, cherry-picked, cytotoxicity control for Shn3 inhibitor project, dose response (AID 624134); assay type: functional
[5] = non-specific 3'UTR reporter inhibition in Clone20-Shn3RL – cell-based, Renilla luciferase, cherry-picked, counter-screen for Shn3 inhibitor project, dose response (AID 624133); assay type: functional
Nonstructural protein 1 = Nonstructural protein 1 (Influenza A virus, UniProt Q194T2); assay type: functional, Influenza A virus (A/California/07/2009(H1N1))
Chain of Nonstructural protein 1 (Q194T2 whole entry): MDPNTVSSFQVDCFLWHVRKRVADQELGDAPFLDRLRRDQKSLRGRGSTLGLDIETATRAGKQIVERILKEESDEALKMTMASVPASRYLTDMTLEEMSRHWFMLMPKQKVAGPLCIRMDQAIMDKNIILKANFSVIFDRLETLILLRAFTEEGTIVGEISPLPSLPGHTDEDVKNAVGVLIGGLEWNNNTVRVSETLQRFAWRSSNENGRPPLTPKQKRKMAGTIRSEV

[6] = test system: Streptococcus sp. 'group A'; test: Streptococcus pyogenes SK(-)GAS viability under kanamycin – luminescence, BacTiterGlo, confirmation, counter-screen for streptokinase expression inhibitor project, dose response (AID 1900); assay type: functional, organism-based
Streptokinase A = molecular target: T2, Streptokinase A (Streptococcus pyogenes serotype M1, UniProt P10520); test: viability-normalized secreted streptokinase activity reduction – plasminogen activation absorbance, OD405, dose response (AID 1914); assay type: functional, Streptococcus pyogenes M1 GAS;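 also: secreted streptokinase activity via plasminogen activation per viability signal from cell pellet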
T2 sequence (P10520 whole entry): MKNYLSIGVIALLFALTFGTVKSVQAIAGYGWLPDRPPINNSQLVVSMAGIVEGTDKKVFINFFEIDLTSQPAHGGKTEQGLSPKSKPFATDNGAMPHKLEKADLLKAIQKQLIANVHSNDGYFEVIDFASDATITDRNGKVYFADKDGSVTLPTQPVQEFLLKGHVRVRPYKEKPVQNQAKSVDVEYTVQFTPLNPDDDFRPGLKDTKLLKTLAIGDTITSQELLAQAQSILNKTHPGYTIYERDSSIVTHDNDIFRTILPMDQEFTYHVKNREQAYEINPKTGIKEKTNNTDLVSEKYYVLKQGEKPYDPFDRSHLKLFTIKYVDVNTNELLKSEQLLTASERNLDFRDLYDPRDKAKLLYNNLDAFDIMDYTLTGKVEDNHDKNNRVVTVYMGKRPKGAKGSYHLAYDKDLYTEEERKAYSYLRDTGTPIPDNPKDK

Streptococcus = test: GAS UMAA2166 growth inhibition – luminescence, BacTiterGlo, counter-screen for streptokinase expression inhibitor project, dose response (AID 1915); assay type: functional, organism-based;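 also: potency for reduction of bacterial viability or growth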
[7] = blockers of HIV-1 envelope-mediated cell-cell fusion – cherry-pick, dose response (AID 652057); assay type: functional, cell-based
[8] = blockers of HIV-1 ZM109 envelope-driven cell-cell fusion – HeLa effector, CEM target cells, luciferase, cherry-pick, dose response (AID 652058); assay type: functional, cell-based;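 also: luciferase signal from HIV-1 Env mediated cell-cell fusion of effector and target cells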
[9] = off-target signal loss in HeLa-CEM21 co-culture – HeLa F-luc CTL cells, cherry-picked, counter-screen for HIV-1 Env fusion inhibitor project, dose response (AID 652040); assay type: functional, cell-based;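 also: potency for signal decrease marking cytotoxic or nonspecific inhibition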
Cytochrome P450 1A2 = molecular target: T3, Cytochrome P450 1A2 (Homo sapiens, UniProt P05177);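 also: PubChem cytochrome P450 panel assay, CYP1A2 panel member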
T3 sequence (P05177 whole entry): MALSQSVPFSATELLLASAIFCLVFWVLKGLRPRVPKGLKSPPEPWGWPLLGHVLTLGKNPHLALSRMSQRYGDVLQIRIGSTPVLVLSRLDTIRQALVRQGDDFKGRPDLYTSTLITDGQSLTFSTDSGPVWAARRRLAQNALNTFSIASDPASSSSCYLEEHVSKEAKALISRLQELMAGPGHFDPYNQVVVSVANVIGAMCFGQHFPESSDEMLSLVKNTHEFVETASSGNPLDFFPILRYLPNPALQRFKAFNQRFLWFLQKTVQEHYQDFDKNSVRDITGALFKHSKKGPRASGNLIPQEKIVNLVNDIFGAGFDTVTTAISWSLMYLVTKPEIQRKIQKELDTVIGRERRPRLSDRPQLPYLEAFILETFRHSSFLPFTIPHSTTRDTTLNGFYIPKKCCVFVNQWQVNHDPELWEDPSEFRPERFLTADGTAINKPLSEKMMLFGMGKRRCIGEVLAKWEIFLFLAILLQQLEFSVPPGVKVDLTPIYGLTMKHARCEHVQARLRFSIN

Cytochrome P450 2C9 = Cytochrome P450 2C9 (Homo sapiens, UniProt P11712)
Chain of Cytochrome P450 2C9 (P11712 whole entry): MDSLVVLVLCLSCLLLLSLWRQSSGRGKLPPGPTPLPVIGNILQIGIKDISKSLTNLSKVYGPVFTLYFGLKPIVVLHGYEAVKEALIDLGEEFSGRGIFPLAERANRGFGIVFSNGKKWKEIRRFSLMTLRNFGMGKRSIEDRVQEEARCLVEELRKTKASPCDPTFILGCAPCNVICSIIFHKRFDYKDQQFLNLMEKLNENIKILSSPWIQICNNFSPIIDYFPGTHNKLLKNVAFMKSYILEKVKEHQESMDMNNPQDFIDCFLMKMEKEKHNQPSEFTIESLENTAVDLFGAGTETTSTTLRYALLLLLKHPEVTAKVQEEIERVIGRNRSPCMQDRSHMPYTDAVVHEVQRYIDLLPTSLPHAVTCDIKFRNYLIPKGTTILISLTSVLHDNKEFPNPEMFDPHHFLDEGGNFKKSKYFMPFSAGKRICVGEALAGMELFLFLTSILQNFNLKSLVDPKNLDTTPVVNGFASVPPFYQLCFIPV

[10] = viability of uninfected HEp-2 cells – cell-based, HTS, cytotoxicity control for RSV inhibitor project, dose response (AID 2410); assay type: functional; details: human respiratory syncytial virus
Vero = test: cells; assay type: functional; details: Chlorocebus sabaeus
[11] = molecular target: T4, Carboxy-terminal domain RNA polymerase II polypeptide A small phosphatase 1 (Homo sapiens, UniProt Q9GZU7); test: CTDSP1 inhibitors, concentration-response, biochemical, absorbance readout, ultra-high-throughput screen actives (AID 540297); assay type: functional
T4 sequence (Q9GZU7 whole entry): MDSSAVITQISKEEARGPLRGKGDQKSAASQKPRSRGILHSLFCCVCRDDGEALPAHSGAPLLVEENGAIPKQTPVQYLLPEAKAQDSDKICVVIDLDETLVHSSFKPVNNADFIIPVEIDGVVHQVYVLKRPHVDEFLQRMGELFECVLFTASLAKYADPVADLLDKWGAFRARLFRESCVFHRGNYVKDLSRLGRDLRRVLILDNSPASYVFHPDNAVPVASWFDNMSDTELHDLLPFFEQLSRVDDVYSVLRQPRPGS

[12] = molecular target: T5, Short transient receptor potential channel 4 (Mus musculus, UniProt Q9QUQ5); test: calcium entry via TRPC4 opening agents – cell-based, HEK293 TRPC4/mu-opioid, Fluo-4 calcium, dose response (AID 434937); assay type: functional
T5 sequence (Q9QUQ5 whole entry): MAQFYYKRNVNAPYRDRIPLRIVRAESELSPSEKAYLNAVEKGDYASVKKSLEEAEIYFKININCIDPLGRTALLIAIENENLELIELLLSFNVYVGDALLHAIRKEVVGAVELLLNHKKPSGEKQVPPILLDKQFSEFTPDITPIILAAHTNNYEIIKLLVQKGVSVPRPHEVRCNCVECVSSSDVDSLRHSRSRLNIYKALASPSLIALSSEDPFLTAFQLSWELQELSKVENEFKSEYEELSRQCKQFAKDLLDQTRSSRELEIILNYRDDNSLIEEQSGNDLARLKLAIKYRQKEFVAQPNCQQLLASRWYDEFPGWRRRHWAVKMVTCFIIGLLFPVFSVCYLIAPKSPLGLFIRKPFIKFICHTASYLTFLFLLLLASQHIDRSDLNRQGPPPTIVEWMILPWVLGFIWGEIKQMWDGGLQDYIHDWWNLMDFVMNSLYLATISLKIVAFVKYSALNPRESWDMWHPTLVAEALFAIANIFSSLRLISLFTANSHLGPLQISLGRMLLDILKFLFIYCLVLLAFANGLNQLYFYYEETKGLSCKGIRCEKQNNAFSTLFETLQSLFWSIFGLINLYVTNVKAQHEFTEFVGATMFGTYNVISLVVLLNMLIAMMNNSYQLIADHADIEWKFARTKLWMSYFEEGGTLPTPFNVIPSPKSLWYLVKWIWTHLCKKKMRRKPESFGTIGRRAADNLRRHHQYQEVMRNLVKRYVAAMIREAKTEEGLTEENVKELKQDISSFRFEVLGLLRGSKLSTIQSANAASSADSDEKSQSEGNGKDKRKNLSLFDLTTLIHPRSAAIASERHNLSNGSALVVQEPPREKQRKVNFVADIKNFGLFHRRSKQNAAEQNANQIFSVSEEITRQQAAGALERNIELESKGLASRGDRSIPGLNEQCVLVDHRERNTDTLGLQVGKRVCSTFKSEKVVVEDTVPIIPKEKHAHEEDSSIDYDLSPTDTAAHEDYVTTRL

[13] = molecular target: Heat shock protein HSP 90-alpha (Homo sapiens, UniProt P07900); assay type: functional, organism-based
[14] = HIV-1 AD8 envelope cell-cell fusion blockers – cherry-pick, dose response (AID 652062); assay type: functional, cell-based;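 also: luciferase signal from cell-cell fusion driven by HIV-1 clade B AD8 Env; potency is for inhibitors of fusion seen as a drop in luminescence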

c1ccc(C[C@H]2CNCCN2CCC23CC4CC(CC(C4)C2)C3)cc1
IC50 [1]: > 20 µM (inactive)

COC(=O)/C=C/S(=O)(=O)c1ccc(NC(C)=O)cc1
AC50 [2]: 0.118 µM (active)
AC50 [3]: 7.3 µM (active)
AC50 [4]: 42.2 µM (active)
AC50 [5]: 14.2 µM (active)

N#Cc1nc(-c2ccco2)oc1N1CCc2ccccc2C1
IC50 (Nonstructural protein 1): > 100 µM (active)

CCCCCCc1nc2ccccc2c(=O)n1NC(=O)c1c(O)c2c(n(CC(C)C)c1=O)CCCC2
EC50 [6]: 84.9 µM (active)
EC50 (Streptokinase A): > 150 µM (not active)
EC50 (Streptococcus): > 150 µM (not active)
AC50 [7]: 22.8 µM (active)
AC50 [8]: 69.4 µM (active)
AC50 [9]: 4.42 µM (active)
AC50 (Cytochrome P450 1A2): 15.8 µM (inconclusive)
AC50 (Cytochrome P450 2C9): 0.708 µM (inconclusive)

c1coc(CN(Cc2ccco2)c2ncnc3c2oc2ccccc23)c1
AC50 [3]: 5.45 µM (active)
AC50 [4]: 67 µM (active)
AC50 [5]: 3.94 µM (active)

Nc1nc(N)nc(-c2ccccn2)n1
IC50 (Nonstructural protein 1): 19.9 µM (active)

O=C1C(NS(=O)(=O)c2cccs2)=C(N2CCN(c3cccc(C(F)(F)F)c3)CC2)C(=O)c2ccccc21
CC50 [10]: 12.4 µM (active)
EC50 [6]: 7.31 µM (active)
EC50 (Streptokinase A): > 150 µM (not active)
EC50 (Streptococcus): 13.5 µM (active)
IC50 (Nonstructural protein 1): 19.6 µM (active)

Cc1ccc2oc(=O)c3cc(C(=O)NCCCN4CCCC(C)C4)sc3c2c1 (stereo not given)
CC50 (Vero): > 25 µM (active)

O=C(OCc1nnc(-c2ccccc2)o1)c1ccc(S(=O)(=O)NCc2ccco2)cc1
IC50 [11]: 13.4 µM (active)

Cc1ccc(-n2cc(CNC(C)Cc3cnccn3)c(-c3cccc(C)c3)n2)cc1 (stereo not given)
EC50 [12]: 5.96 µM (active)

O=C(C1CCCN(Cc2ccncc2)C1)N1CCc2ccccc2C1 (stereo not given)
EC50 [12]: 0.188 µM (active)

Cc1csc(NC(=O)CSc2sc3c(O)cc(O)nc3c2C#N)n1
IC50 [11]: 5.14 µM (active)

O=c1c(Cc2ccccc2)c(O)ccn1CCc1c[nH]cn1
EC50 [12]: 3.76 µM (active)

CCN1CCN(c2ccc(S(=O)(=O)N3CCOCC3)cc2NC(=O)c2ccccc2OC(F)F)CC1
EC50 [12]: 0.299 µM (active)

Oc1ccc(/C=C/c2ccc3cccc(O)c3n2)cc1Br
EC50 [6]: 1.03 µM (active)
EC50 (Streptococcus): 2.72 µM (active)
AC50 [13]: 1.35 µM (active)

CC1CN(c2ccc([N+](=O)[O-])c3cccnc23)CC(C)N1 (stereo not given)
EC50 [12]: 0.335 µM (active)

O=C(CCCCCN1C(=O)c2cccc3cccc(c23)C1=O)NC1CCS(=O)(=O)C1 (stereo not given)
IC50 [1]: > 20 µM (inactive)

COc1ccc(S(=O)(=O)N(C)C)cc1NC(=O)C1CCN(c2ncnc3sc(C)c(C)c23)CC1
AC50 [3]: 9.21 µM (active)
AC50 [4]: > 70 µM (inactive)
AC50 [5]: 18.9 µM (active)

N#C/C(=C/C1=C(N2CCOCC2)C(=C/c2ccccc2)/CC1)C(=O)Nc1ccccc1F
IC50 (Nonstructural protein 1): 3.83 µM (active)

CCOC(=O)C1(Cc2cccc(F)c2)CCN(Cc2cnn(CC)c2)CC1
EC50 [12]: 0.668 µM (active)

N#C/C(=C/c1ccc(OC(=O)c2ccc(Br)s2)cc1)c1nc2ccccc2[nH]1
IC50 [11]: 1.82 µM (active)

CC[C@@]1(C(=O)OC)N[C@H](CN(C)C(=O)COc2ccccc2)[C@@H]2C(=O)N(Cc3ccccc3)C(=O)[C@@H]21
AC50 [7]: 2.2 µM (active)
AC50 [8]: 1.53 µM (active)
AC50 [9]: 4.2 µM (active)
AC50 [14]: 3.82 µM (active)

O=S(=O)(NCc1ccncc1)c1ccc(F)c(F)c1
AC50 [3]: 2.09 µM (active)
AC50 [4]: 54.7 µM (active)
AC50 [5]: 1.2 µM (active)

O=C(N/N=C/c1cc(Br)c(Br)o1)c1cc2ccccc2o1
IC50 [11]: 5.65 µM (active)

COc1cccc(-c2nnc3n2N=C(c2cc(OC)ccc2OC)CS3)c1
IC50 [1]: > 20 µM (inactive)

COc1ccc(C(=O)O/N=C2\C(=O)N(C)c3ccccc32)cc1
AC50 [13]: 1.1 µM (active)

C=CCNc1ncnc2ccc(Br)cc12
AC50 [7]: 4.53 µM (active)
AC50 [8]: 39.1 µM (active)
AC50 [9]: 5.9 µM (active)
AC50 [14]: 6.46 µM (active)
